Laboratory results as given in patent US10092556B2, “Piperidine compound or salt thereof” (TAIHO PHARMACEUTICAL CO., LTD., priority 2012, dated 2018).

Key:
[1] = tested on: human-derived stomach cancer cell line SNU-16; assay: Inhibitory effect on cell proliferation (CellTiter-Glo, 72 hours); type: cell-based; conditions: SNU-16, 72 hours
From the text: Cells of the human-derived stomach cancer cell line SNU-16 were each routinely subcultured in the 10% fetal bovine serum (FBS)-containing RPMI-1640 medium and 10% FBS-containing Dulbecco's Modified Eagle Medium (DMEM) in order to maintain cell density of no more than 80%. In order to initiate a test for the inhibitory activity on cell proliferation, cells were each suspended in the aforementioned medium and seeded in each well of a 96-well flat bottom plate (black plate with a transparent bottom) at 2,500 or 3,000 cells per well. The cells were then cultured for one day at 37° C. in an incubator containing 5% carbon dioxide gas. The next day, the compound of the present invention and the subject compound were dissolved in DMSO, and using DMSO, the test compounds were serially diluted to a concentration of 200 times the final concentration. The solution of the test compounds in DMSO was diluted with the medium used for culturing, and then added to each well of the cell culture plate at a final DMSO concentration of 0.5%. The cells were cultured for 72 hours at 37° C. in an incubator containing 5% carbon dioxide gas. The cells were counted at the time of addition of the test compounds and 72 hours after culturing using the CellTiter-Glo Luminescent Cell Viability Assay kit (the product of Promega) based on the protocol recommended by Promega. The reagent included in the kit was added to each plate, followed by stirring, and the plates were left to stand at room temperature for 10 minutes. Upon completion of the reaction, the luminescence signal was measured using a microplate reader.
The cell proliferation inhibitory rate was calculated from the following formula and the concentration of the test compound at which the cell proliferation was inhibited by 50% (GI50 (nM)) was determined. Cell proliferation inhibitory rate (%)=(C−T)/(C−C0)×100 T: Luminescence signal in a well with the addition of the test compound C: Luminescence signal in a well without the addition of the test compound C0: Luminescence signal in a well measured before the addition of the compound

[2] = Evaluation of oral absorbability (plasma concentration after oral administration); type: in vivo; conditions: BALB/cA mouse, 0.5% HPMC, 0.5-6 hours
Protocol: The test compound was suspended or dissolved in 0.5% HPMC and orally administered to a BALB/cA mouse. The blood was drawn from the retro-orbital venous plexus 0.5, 1, 2, 4, and 6 hours after oral administration to obtain plasma. The concentration of the compound in the plasma thus obtained was measured by LCMS and the oral absorbability was evaluated.

[3] = tested on: human uterine cervical cancer cell line (Hela-Luc); assay: Evaluation of the anti-tumor effect (2), Hela-Luc subcutaneous transplant in nude mouse; type: in vivo; conditions: Day 11, paclitaxel 20 mg/kg iv day 1
[4] = tested on: human uterine cervical cancer cell line (Hela-Luc); assay: Evaluation of the anti-tumor effect (1), Hela-Luc subcutaneous transplant in nude mouse; conditions: Day 23; paclitaxel 30 mg/kg iv day 1; compound 60 mg/kg oral twice a day on day 2 and 3
From the text: The luciferase-introduced human uterine cervical cancer cell line (Hela-Luc) was subcutaneously transplanted into a nude mouse, and when the volume of the grafted tumor reached 100 to 200 mm^3, five mice in one group were grouped into the single drug administration group and combinational administration group by a randomized stratification method so as to achieve a uniform tumor volume in each group (day 1). […] In order to compare the anti-tumor effect brought about by drug administration, setting the tumor volume at the time of grouping at 1, the relative tumor volume (RTV) was determined in accordance with the following formula as a rate of tumor proliferation. RTV=(Tumor volume on the day of measurement of tumor volume)/(Tumor volume at the time of grouping)
Meanwhile, as the index of systemic toxicity caused by drug administration, the body weight change (BWC) was used. BWC (%)=([(Body weight of mouse on the day of body weight measurement)−(Body weight of mouse at the time of grouping)]/(Body weight of mouse at the time of grouping))×100

[5] = Table 23, Compound 22 100 mg/kg single, 60 mg/kg in combination, oral twice a day on day 2 and 3
[6] = Table 22, Compound 13 30 mg/kg oral twice a day on day 2 and 3

SMILES | GI50 [1] | oral absorbability (plasma concentration after oral administration) [2] | BWC (body weight change) [3, 5] | BWC (body weight change) [4] | BWC (body weight change) [3, 6]
Cc1cc(Nc2nc(CC3(C(=O)O)CCN(C(=O)c4cccc(Cl)c4Cl)CC3)ccc2F)n[nH]1 [Example 1, 1-(2,3-dichlorobenzoyl)-4-((5-fluoro-6-(5-methyl-1H-pyrazol-3-ylamino)pyridin-2-yl)methyl)piperidine-4-carboxylic acid] | 120 nM | favorable oral absorbability |  |  | 
COc1ccc(CC2(C(=O)O)CCN(C(=O)c3cccc(Cl)c3F)CC2)nc1Nc1cc(C)[nH]n1 [Example 11, 1-(3-chloro-2-fluorobenzoyl)-4-((5-methoxy-6-(5-methyl-1H-pyrazol-3-ylamino)pyridin-2-yl)methyl)piperidine-4-carboxylic acid] |  | favorable oral absorbability |  |  | 
CC(=O)O[C@H]1C(=O)[C@@]2(C)[C@H]([C@H](OC(=O)c3ccccc3)[C@]3(O)C[C@H](OC(=O)[C@H](O)[C@@H](NC(=O)c4ccccc4)c4ccccc4)C(C)=C1C3(C)C)[C@]1(OC(C)=O)CO[C@@H]1C[C@@H]2O [Paclitaxel, paclitaxel, reference compound] |  |  | 7.8% | 3.0% | 5.4%

The next lines start with results.

GI50 [1] | oral absorbability (plasma concentration after oral administration) [2] | SMILES | BWC (body weight change) [3, 5] | BWC (body weight change) [4] | BWC (body weight change) [3, 6]
970 nM | favorable oral absorbability | Cc1cc(Nc2nc(CC3(c4noc(C)n4)CCN(C(=O)c4cccc(Cl)c4F)CC3)ccc2F)n[nH]1 [Example 22, (3-chloro-2-fluorophenyl)(4-((5-fluoro-6-(5-methyl-1H-pyrazol-3-ylamino)pyridin-2-yl)methyl)-4-(5-methyl-1,2,4-oxadiazol-3-yl)piperidin-1-yl)methanone] | 6.9% |  | 
 | favorable oral absorbability | Cc1cc(Nc2nc(CC3(C(=O)O)CCN(C(=O)c4cccc(Cl)c4F)CC3)ccc2Cl)n[nH]1 [Example 12, 1-(3-chloro-2-fluorobenzoyl)-4-((5-chloro-6-(5-methyl-1H-pyrazol-3-ylamino)pyridin-2-yl)methyl)piperidine-4-carboxylic acid] |  |  | 
60 nM | favorable oral absorbability | Cc1cc(Nc2nc(CC3(C(=O)O)CCN(C(=O)c4cccc(Cl)c4F)CC3)ccc2F)n[nH]1 [Example 13, 1-(3-chloro-2-fluorobenzoyl)-4-((5-fluoro-6-(5-methyl-1H-pyrazol-3-ylamino)pyridin-2-yl)methyl)piperidine-4-carboxylic acid] |  |  | 6.0%
